According to PubChem BioAssay (NCI):
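How tested: cells in 96-well plates exposed to compound for 48 hours at five concentrations. TGI denotes the concentration required for complete inhibition of growth.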

Tests used:
Test in all cases: NCI anticancer screen, dose series, 48 h
MDA-MB-231 breast = system: MDA-MB-231 breast
SK-MEL-28 melanoma = system: SK-MEL-28 melanoma
HCT-116 colon = system: HCT-116 colon
LOX IMVI melanoma = system: LOX IMVI melanoma
ACHN renal = system: ACHN renal
NCI/ADR-RES ovarian = system: NCI/ADR-RES ovarian
IGROV1 ovarian = system: IGROV1 ovarian
BT-549 breast = system: BT-549 breast
MDA-N = system: MDA-N
SNB-75 CNS = system: SNB-75 CNS
UACC-257 melanoma = system: UACC-257 melanoma
NCI-H23 lung = system: NCI-H23 lung
786-0 renal = system: 786-0 renal
OVCAR-5 ovarian = system: OVCAR-5 ovarian
SW-620 colon = system: SW-620 colon
K-562 leukemia = system: K-562 leukemia
HOP-92 NSCLC = system: HOP-92 NSCLC
HCC-2998 colon = system: HCC-2998 colon
MCF7 breast = system: MCF7 breast
SK-MEL-2 melanoma = system: SK-MEL-2 melanoma
SN12C renal = system: SN12C renal
U251 CNS = system: U251 CNS
OVCAR-8 ovarian = system: OVCAR-8 ovarian
OVCAR-3 ovarian = system: OVCAR-3 ovarian
KM12 colon = system: KM12 colon
TK-10 renal = system: TK-10 renal
COLO 205 colon = system: COLO 205 colon
SNB-19 CNS = system: SNB-19 CNS
RXF 393 renal = system: RXF 393 renal
MDA-MB-435 = system: MDA-MB-435
MALME-3M melanoma = system: MALME-3M melanoma
SF-539 CNS = system: SF-539 CNS
UACC-62 melanoma = system: UACC-62 melanoma
M14 melanoma = system: M14 melanoma
SF-295 CNS = system: SF-295 CNS
HT29 colon = system: HT29 colon
T-47D breast = system: T-47D breast
OVCAR-4 ovarian = system: OVCAR-4 ovarian
HOP-62 NSCLC = system: HOP-62 NSCLC
NCI-H226 lung = system: NCI-H226 lung
CAKI-1 renal = system: CAKI-1 renal
MOLT-4 leukemia = system: MOLT-4 leukemia
SR leukemia = system: SR leukemia
HS 578T breast = system: HS 578T breast
RPMI-8226 leukemia = system: RPMI-8226 leukemia
HCT-15 colon = system: HCT-15 colon
PC-3 prostate = system: PC-3 prostate
SF-268 CNS = system: SF-268 CNS
SK-OV-3 ovarian = system: SK-OV-3 ovarian
A549 NSCLC = system: A549 NSCLC
CCRF-CEM leukemia = system: CCRF-CEM leukemia
EKVX NSCLC = system: EKVX NSCLC
DU-145 prostate = system: DU-145 prostate
HL-60(TB) leukemia = system: HL-60(TB) leukemia
NCI-H460 lung = system: NCI-H460 lung
NCI-H522 lung = system: NCI-H522 lung
A498 renal = system: A498 renal
SK-MEL-5 melanoma = system: SK-MEL-5 melanoma
UO-31 renal = system: UO-31 renal

## CCN(CC)CCC(=O)c1ccc(Oc2ccccc2)cc1
MDA-MB-231 breast
  TGI: 36.7 µM
SK-MEL-28 melanoma
  TGI: 32.5 µM
HCT-116 colon
  TGI: 36.1 µM
LOX IMVI melanoma
  TGI: 31.3 µM
ACHN renal
  TGI: 29.3 µM
NCI/ADR-RES ovarian
  TGI: 56.4 µM
IGROV1 ovarian
  TGI: 33.3 µM
BT-549 breast
  TGI: 33.5 µM
MDA-N
  TGI: 30.1 µM
SNB-75 CNS
  TGI: 52 µM
UACC-257 melanoma
  TGI: 33.5 µM
NCI-H23 lung
  TGI: 78.5 µM
786-0 renal
  TGI: 29.3 µM
OVCAR-5 ovarian
  TGI: 46.4 µM
SW-620 colon
  TGI: 31.3 µM
K-562 leukemia
  TGI: > 100 µM
HOP-92 NSCLC
  TGI: 30.1 µM
HCC-2998 colon
  TGI: 35.6 µM
MCF7 breast
  TGI: 38.5 µM
SK-MEL-2 melanoma
  TGI: > 100 µM
SN12C renal
  TGI: 31.4 µM
U251 CNS
  TGI: 32.3 µM
OVCAR-8 ovarian
  TGI: > 100 µM
OVCAR-3 ovarian
  TGI: 45.3 µM
KM12 colon
  TGI: 27.4 µM
TK-10 renal
  TGI: 27.5 µM
COLO 205 colon
  TGI: 32.1 µM
SNB-19 CNS
  TGI: 38.2 µM
RXF 393 renal
  TGI: 36.4 µM
MDA-MB-435
  TGI: 40.2 µM
MALME-3M melanoma
  TGI: 30.1 µM
SF-539 CNS
  TGI: 34 µM
UACC-62 melanoma
  TGI: 29.3 µM
M14 melanoma
  TGI: > 100 µM
SF-295 CNS
  TGI: > 100 µM
HT29 colon
  TGI: 38.3 µM
T-47D breast
  TGI: 42 µM
OVCAR-4 ovarian
  TGI: 76.9 µM
HOP-62 NSCLC
  TGI: 77.4 µM
NCI-H226 lung
  TGI: > 100 µM
CAKI-1 renal
  TGI: 30.7 µM
MOLT-4 leukemia
  TGI: 48.4 µM
SR leukemia
  TGI: > 100 µM
HS 578T breast
  TGI: 52.6 µM
RPMI-8226 leukemia
  TGI: 39.2 µM
HCT-15 colon
  TGI: 35.6 µM
PC-3 prostate
  TGI: > 100 µM
SF-268 CNS
  TGI: 55.9 µM
SK-OV-3 ovarian
  TGI: > 100 µM
A549 NSCLC
  TGI: > 100 µM
CCRF-CEM leukemia
  TGI: 51.3 µM
EKVX NSCLC
  TGI: 41.4 µM
DU-145 prostate
  TGI: 71.2 µM

## COc1cc(/C=C2\CC3C4CC[C@H]5C[C@@H](O)CC[C@]5(C)C4CC[C@]3(C)C2=O)cc(OC)c1OC (stereo not given in full)
MDA-MB-231 breast
  TGI: > 100 µM
SK-MEL-28 melanoma
  TGI: > 100 µM
HL-60(TB) leukemia
  TGI: 43.2 µM
HCT-116 colon
  TGI: 43.6 µM
LOX IMVI melanoma
  TGI: 32.6 µM
ACHN renal
  TGI: 45.8 µM
NCI/ADR-RES ovarian
  TGI: > 100 µM
IGROV1 ovarian
  TGI: > 100 µM
BT-549 breast
  TGI: > 100 µM
MDA-N
  TGI: > 100 µM
SNB-75 CNS
  TGI: 79.7 µM
UACC-257 melanoma
  TGI: > 100 µM
NCI-H23 lung
  TGI: > 100 µM
786-0 renal
  TGI: > 100 µM
OVCAR-5 ovarian
  TGI: > 100 µM
SW-620 colon
  TGI: > 100 µM
NCI-H460 lung
  TGI: 38.9 µM
K-562 leukemia
  TGI: > 100 µM
HOP-92 NSCLC
  TGI: > 100 µM
HCC-2998 colon
  TGI: 34.9 µM
MCF7 breast
  TGI: 28.6 µM
SK-MEL-2 melanoma
  TGI: 33.7 µM
NCI-H522 lung
  TGI: 43.3 µM
A498 renal
  TGI: 75.5 µM
SN12C renal
  TGI: 95.3 µM
U251 CNS
  TGI: 41.5 µM
OVCAR-8 ovarian
  TGI: > 100 µM
KM12 colon
  TGI: 73.7 µM
TK-10 renal
  TGI: > 100 µM
COLO 205 colon
  TGI: 26.1 µM
SNB-19 CNS
  TGI: > 100 µM
RXF 393 renal
  TGI: > 100 µM
MDA-MB-435
  TGI: 85.8 µM
MALME-3M melanoma
  TGI: 49.1 µM
SF-539 CNS
  TGI: 98.2 µM
UACC-62 melanoma
  TGI: 44.9 µM
SK-MEL-5 melanoma
  TGI: 22 µM
M14 melanoma
  TGI: 61 µM
SF-295 CNS
  TGI: 21.5 µM
HT29 colon
  TGI: > 100 µM
T-47D breast
  TGI: 34.8 µM
UO-31 renal
  TGI: 31.7 µM
OVCAR-4 ovarian
  TGI: 57.2 µM
HOP-62 NSCLC
  TGI: 49.2 µM
NCI-H226 lung
  TGI: 86.1 µM
CAKI-1 renal
  TGI: 44.9 µM
MOLT-4 leukemia
  TGI: 69.5 µM
HS 578T breast
  TGI: > 100 µM
RPMI-8226 leukemia
  TGI: 27.8 µM
HCT-15 colon
  TGI: > 100 µM
PC-3 prostate
  TGI: > 100 µM
SF-268 CNS
  TGI: > 100 µM
SK-OV-3 ovarian
  TGI: 52.9 µM
A549 NSCLC
  TGI: > 100 µM
CCRF-CEM leukemia
  TGI: > 100 µM
EKVX NSCLC
  TGI: > 100 µM
DU-145 prostate
  TGI: > 100 µM
